Measurements taken from patent US5221616A, “Prevention of spontaneous complement activation in mammalian biological fluids” (Quidel Corporation, priority 1988, dated 1993).
Entries after “also recorded” stand apart in the source; their conditions may differ.

Legend:
[1] = target: T1, C3 (Homo sapiens, UniProt P01024); assay: iC3b fragment EIA: spontaneous C3 activation in EDTA-NHP incubated with increasing concentrations of polyhydroxyl compound in water; type: biochemical; settings: 22° C. for 48 hr; for spontaneous iC3b fragment production: increasing final concentrations of compound (galactose up to 2M)
T1 construct: 250 μL of freshly drawn EDTA-normal human plasma (EDTA-NHP); from tissue; host or cells: normal human blood plasma (EDTA plasma; in A12 also citrate and heparin plasma)
Protocol: FIG. 1. […] 250 μL of freshly drawn EDTA-normal human plasma (EDTA-NHP) was mixed with 0 to 250 μL of 4M β-D-glucose dissolved in deionized water. All reaction mixtures were brought up to a final reaction volume of 500 μL using deionized water as the diluent. Each reaction mixture was mixed thoroughly, incubated at 22° C. for 48 hr and assayed for iC3b fragment levels. A non-incubated control (-70° C.) was prepared by mixing 1 part EDTA-NHP with 1 part 4M β-D-glucose dissolved in deionized water. This control reaction mixture was stored at -70° C. until it was assayed in the iC3b fragment EIA along with the incubated experimental samples.
Several different polyhydroxyl compounds were individually dissolved in deionized water to obtain solutions of each compound at a concentration approaching saturation at 22° C. Freshly drawn EDTA-NHP was mixed with increasing concentrations of the polyhydroxyl compound to be tested keeping the final reaction volumes constant. For example, 250 μL of freshly drawn EDTA-NHP was mixed with 0 to 250 μL of the concentrated polyhydroxyl solution to be tested. All reaction mixtures were brought up to a final reaction volume of 500 μL using deionized water as the diluent. Each reaction mixture was mixed thoroughly and incubated at 22° C. for 48 hr. A non-incubated control was prepared for each experiment by mixing 1 part EDTA-NHP with 1 part of the concentrated polyhydroxyl solution to be tested. This control mixture was held at -70° C. until it was thawed out, along with the other experimental samples, and assayed for the occurrence of spontaneous complement activation. For this initial set of experiments, iC3b fragment levels were quantitated in all test samples using the Cytotech monoclonal antibody based EIA procedure. The first analyte selected to be measured was iC3b since, based on previously published data as outlined above, it was anticipated that the C3 protein would be the most susceptible to spontaneous activation upon storage of EDTA-NHP in vitro.
All of the EIA tests employed in these studies utilized solid-phase monoclonal antibody capture assay kit procedures (Cytotech, Inc., San Diego, Calif.). The procedure was basically the same for each EIA kit. Briefly, in the first step of each EIA assay, 100 μL of standards, controls and diluted test specimens were incubated at 22° C., i.e., room temperature, in duplicate polystyrene microtiter wells precoated with a capture monoclonal antibody which specifically reacted with the complement fragment or complex under investigation. During this first incubation period, complement fragments or complexes were bound to the monoclonal antibody coated microassay wells. A wash cycle removed unbound materials.
In the second step, 50 μL of horseradish peroxidase (HRP)-conjugated purified IgG antibody, which reacted with the captured complement fragment or complex analyte, was added to each well and incubated at 22° C. A wash cycle removed unbound conjugate.
In the third step, 100 μL of the HRP enzyme substrate ABTS (0.034% ABTS and 0.0126% H2 O2 in 100 mM sodium citrate buffer, pH 4.0) was added to each well and incubated at 22° C. The bound HRP-conjugatedantibody reacted with the ABTS substrate producing a green color which was proportional to the amount of specimen analyte bound. The HRP-enzymatic reaction was stopped upon addition of 50 μL 250 mM oxalic acid. The substrate color intensity present in each well was measured at 405 nm using an automated EIA microplate reader and the analyte concentration/mL in the original test specimen was determined for each analyte from the appropriate standard curve.
iC3b EIA: The capture mouse monoclonal antibody used to coat microtiter wells for the iC3b fragment EIA was Cytotech MoAb 013III-1.1.6.1 which reacts with a neoantigenic determinant expressed on the iC3b activation fragment of human C3.

[2] = test system: complement; assay: protection against spontaneous complement activation in complement-containing samples during in vitro storage (summary of fragment EIAs); type: biochemical, human; settings: for final concentration identified as particularly effective: added to a complement-containing sample; for range of final concentrations found to provide protection against spontaneous complement activation: complement-containing samples during in vitro storage; for acceptable range of final concentration at which spontaneous C activation will be prevented: ingredient of the formulation
Protocol: A method for screening compounds to determine the complement preventing effectiveness thereof is described in detail in the course of the following experimental description and discussion. The method essentially comprises treating complement-containing samples with various doses of the test compounds, storing the thus-treated sample at conventional storage temperature for a minimum of about 48 hours and determining the extent of complement activation which occurs during the storage period by performing assays on the sample for various complement activation products. The results are compared with determination of the level of the same activation products at the beginning of the storage period, i.e., a non-incubated control sample. A non-treated control, comprising an identical sample diluted with phosphate buffered saline (PBS) in a volume ratio identical to that of the sample and polyhydroxyl solution is similarly assayed.
(§1) The concentrations, expressed as μg analyte/mL, of a number of different activation products of spontaneous complement activation were measured in the course of these experiments. In an effort to normalize the data obtained from the various determinations so that the results from different assays could be directly compared to one another, a percent protection value was calculated for each analyte measured. The precent protection values were calculated by dividing the μg analyte/mL in the non-incubated, time-zero control sample by the μg analyte/mL in the experimental sample, multiplied by 100%. A percent protection value of 70 to 130% for any given analyte measured in an experimental sample was considered to indicate that the invention formulation tested was fully effective at providing protection against the occurrence of spontaneous complement activation. Ideally, the effective composition formulation would provide full protection against the occurrence of spontaneous complement activation in a complement-containing sample for all of the analytes measured. In fact, this was the case with several polyhydroxyl compounds when they were present in sufficiently high concentrations in a preferred embodiment of the invention.
A percent protection value range of 70 to 130% was used as a criterion to define that a given invention embodiment was able to provide full protection against spontaneous complement activation for the following reasons: The coefficient of variation for the EIA kits employed in these studies ranged from 10-30% when analyte levels were measured in the very low range of values found in freshly-drawn normal human plasma samples. Therefore, in order to ensure that a given result fell within the variability range of the assays employed, a percent protection value between 70 and 130% was considered to represent a fully protective effect.

[3] = target: T1, C3; assay: polyhydroxyl compounds in Buffer B mixed with EDTA-NHP: iC3b and C3d,g/iC3b fragment EIA; type: biochemical; settings: 22° C. for 48 hr
Protocol: (§2) An extensive series of experiments were conducted to examine the ability of a large variety of polyhydroxyl compounds to prevent the spontaneous activation of C in EDTA-NHP during in vitro storage at 22° C for 48 hr. EDTA-NHP was mixed with an equal volume of Buffer B containing the polyhydroxyl compound to be tested. In these experiments Buffer B consisted of 40 mM EDTA and 30 IU sodium heparin/mL dissolved in deionized water, pH 7.2. The final concentration of polyhydroxyl compound dissolved in Buffer B varied for each compound due to differences in solubility. For each set of experiments, EDTA-NHP was also diluted and mixed with an equal volume of PBS (untreated control). The EDTA-NHP samples mixed with each polyhydroxyl compound dissolved in Buffer B and the corresponding untreated controls were incubated at 22° C. for 48 hr, stored at -70° C. and subsequently assayed for C4d, iC3b, C3d,g/iC3b and Bb complement fragment levels as well as for circulating immune complex levels using the Raji Cell Replacement EIA. […] This conclusion was based upon the iC3b percent protection values determined for each of the polyhydroxyl compounds (treated samples) as listed in FIG. 14.
as §1
A plasma dilution of 1:50 and a serum dilution of 1:100 were used in the iC3b fragment EIA tests. The immunochemical reaction specificity of MoAb 013III-1.1.6.1 has been published previously in abstract form, W. P. Kolb, et al., Fed. Proc. 44:990 (1985).
A plasma dilution of 1:250 and a serum dilution of 1:500 were used in the C3d,g/iC3b EIA tests. […] 135:2015-2019 (1985); Y. Kanayama, et al., J. Immunol. Meth. 88:33-36 (1986). The immunochemical reaction specificity of the Cytotech MoAb 013III-31.4.3.2.2has been published previously in abstract form, W. P. Kolb, et al., FASEB Journal 2:A1834 (1988).

[4] = test system: coagulation system and fibrin clot formation; settings: whole blood or plasma; cited from earlier work
[5] = test system: complement system; settings: plasma or serum; cited from earlier work
[6] = test system: C3, Factor B, or the terminal complement proteins; assay: effect of sodium heparin on storage behavior of other complement proteins; type: biochemical, human; settings: sodium heparin in the stabilizing formulation
[7] = test system: C4; assay: C4d fragment EIA: heparin plasma or heparin whole blood stored on ice or at 22° C.; type: biochemical, human
Protocol: The first set of experiments addressed the question of how long can a human complement-containing sample be incubated at various temperatures in vitro before evidence of spontaneous C activation can be measured. In FIG. 16 results are presented in which freshly drawn EDTA-NHP, heparin plasma, heparin whole blood or EDTA whole blood were stored on ice (1° C.) or at 22° C. […] In the case of the whole blood samples, the cells were removed by centrifugation before the plasma supernatants were collected and stored at -70° C. […] The other components of the invention composition are also required in order to obtain full protection against spontaneous C activation. This point will be covered in further detail below.

[8] = test system: C4; assay: polyhydroxyl compounds in Buffer B mixed with EDTA-NHP: C4d fragment EIA; type: biochemical, human; settings: 22° C. for 48 hr
Protocol: as §2, §1

T1 sequence (P01024 672-1663 limits assumed): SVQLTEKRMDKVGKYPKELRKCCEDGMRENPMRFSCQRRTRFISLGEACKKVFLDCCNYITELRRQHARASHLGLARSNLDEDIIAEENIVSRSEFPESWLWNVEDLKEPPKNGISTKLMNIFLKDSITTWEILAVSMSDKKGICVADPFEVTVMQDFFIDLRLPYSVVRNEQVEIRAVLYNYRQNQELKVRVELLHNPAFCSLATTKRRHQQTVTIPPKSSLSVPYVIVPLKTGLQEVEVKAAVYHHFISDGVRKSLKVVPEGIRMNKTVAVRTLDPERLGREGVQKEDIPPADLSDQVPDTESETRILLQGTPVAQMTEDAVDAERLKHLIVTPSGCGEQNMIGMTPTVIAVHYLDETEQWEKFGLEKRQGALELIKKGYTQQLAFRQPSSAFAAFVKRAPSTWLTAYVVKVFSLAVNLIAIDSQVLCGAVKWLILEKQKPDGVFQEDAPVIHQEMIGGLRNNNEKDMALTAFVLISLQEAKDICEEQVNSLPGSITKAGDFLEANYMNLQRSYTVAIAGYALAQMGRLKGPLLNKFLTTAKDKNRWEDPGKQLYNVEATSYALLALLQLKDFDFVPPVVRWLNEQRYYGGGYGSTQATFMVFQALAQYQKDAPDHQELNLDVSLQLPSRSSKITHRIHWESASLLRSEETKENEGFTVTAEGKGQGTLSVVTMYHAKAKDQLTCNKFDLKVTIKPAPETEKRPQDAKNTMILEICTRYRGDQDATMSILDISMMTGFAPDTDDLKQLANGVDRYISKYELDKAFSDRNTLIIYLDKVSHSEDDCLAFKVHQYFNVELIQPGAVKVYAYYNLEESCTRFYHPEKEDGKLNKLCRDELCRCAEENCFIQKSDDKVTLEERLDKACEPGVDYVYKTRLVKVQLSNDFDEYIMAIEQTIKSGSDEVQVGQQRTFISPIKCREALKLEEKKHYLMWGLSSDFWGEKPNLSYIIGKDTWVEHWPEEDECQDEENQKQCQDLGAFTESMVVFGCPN
T1 sequence (P01024 23-667 limits assumed): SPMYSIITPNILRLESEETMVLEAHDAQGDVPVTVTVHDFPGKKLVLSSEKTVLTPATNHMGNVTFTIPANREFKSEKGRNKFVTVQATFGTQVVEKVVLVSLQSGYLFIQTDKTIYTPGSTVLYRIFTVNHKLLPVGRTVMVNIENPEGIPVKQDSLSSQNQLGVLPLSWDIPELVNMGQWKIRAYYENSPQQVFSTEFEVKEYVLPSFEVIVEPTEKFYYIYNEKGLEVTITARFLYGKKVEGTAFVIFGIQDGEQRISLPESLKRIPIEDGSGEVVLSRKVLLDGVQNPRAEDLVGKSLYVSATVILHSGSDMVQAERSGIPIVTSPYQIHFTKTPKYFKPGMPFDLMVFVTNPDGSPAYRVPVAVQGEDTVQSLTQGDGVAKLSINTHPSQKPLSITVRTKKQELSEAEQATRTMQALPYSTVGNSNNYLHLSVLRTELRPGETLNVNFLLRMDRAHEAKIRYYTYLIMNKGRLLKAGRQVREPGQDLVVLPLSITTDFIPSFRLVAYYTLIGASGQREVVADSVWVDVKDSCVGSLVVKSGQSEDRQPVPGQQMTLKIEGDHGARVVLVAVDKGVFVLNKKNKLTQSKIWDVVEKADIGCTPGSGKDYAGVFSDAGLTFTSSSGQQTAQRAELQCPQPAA

Compound: OC[C@H]1O[C@H](O[C@H]2O[C@H](CO)[C@@H](O)[C@H](O)[C@H]2O)[C@H](O)[C@@H](O)[C@@H]1O [trehalose]
- final concentration that completely prevented spontaneous iC3b fragment production ([1]; compared with -70° C. control): ≥ 1.3 M
- spontaneous iC3b fragment production [1]: inhibited with increasing concentrations
- final concentration identified as particularly effective [2]: ≥ 1.3 M
- range of final concentrations found to provide protection against spontaneous complement activation [2]: 0.6 to 3.5 M

Compound: O[C@H]1[C@H](O)[C@@H](O)[C@H](O)[C@@H](O)[C@H]1O [inositol]
- prevention of spontaneous activation of C3 ([3]; final concentration 0.5M): ineffective

Compound: OC[C@H]1O[C@@H](OC[C@H]2OC(O)[C@H](O)[C@@H](O)[C@@H]2O)[C@H](O)[C@@H](O)[C@@H]1O (stereo partly shown) [gentiobiose]
- spontaneous iC3b fragment production [1]: inhibited with increasing concentrations
- final concentration identified as particularly effective [2]: ≥ 1.5 M
- range of final concentrations found to provide protection against spontaneous complement activation [2]: 1.0 to 4 M

Compound: O=C(O)CN(CCN(CC(=O)O)CC(=O)O)CC(=O)O [EDTA, ethylene diamine tetraacetic acid]
- acceptable range of final concentration at which spontaneous C activation will be prevented [2]: 1 to 40 mM
- final concentration that inhibits activation of the coagulation system and fibrin clot formation [4]: ≥ 1 mM
- final concentration that inhibits activation of the complement system [5]: ≥ 1 mM

Compound: OC[C@H]1O[C@@](CO)(O[C@H]2O[C@H](CO)[C@@H](O)[C@H](O)[C@H]2O)[C@@H](O)[C@@H]1O [sucrose]
- spontaneous iC3b fragment production [1]: inhibited with increasing concentrations
- final concentration identified as particularly effective [2]: ≥ 1.75 M
- range of final concentrations found to provide protection against spontaneous complement activation [2]: 1.2 to 4 M

Compound: N[C@@H]1C(O)O[C@H](CO)[C@@H](O)[C@@H]1O (stereo partly drawn) [D-mannosamine]
- prevention of spontaneous activation of C3 ([3]; final concentration 2M): ineffective

Compound: OC[C@H]1O[C@H](OC[C@H]2OC(O)[C@H](O)[C@@H](O)[C@@H]2O)[C@H](O)[C@@H](O)[C@H]1O (stereo partly shown) [melibiose]
- spontaneous iC3b fragment production [1]: inhibited with increasing concentrations
- final concentration identified as particularly effective [2]: ≥ 1.5 M
- range of final concentrations found to provide protection against spontaneous complement activation [2]: 0.6 to 4 M

Compound: galactose
- spontaneous iC3b fragment production [1]: only slight inhibition
- prevention of spontaneous activation of C3 ([3]; final concentration 2M): ineffective

Compound: sodium heparin
- effect on storage behavior of C3, Factor B, or the terminal complement proteins [6]: does not improve the storage behavior
- acceptable range of final concentration at which spontaneous C activation will be prevented [2]: 15-60 IU/mL
- prevention of spontaneous activation of C4 ([7]; heparin alone, 22° C for as long as 24 hr): not sufficient to prevent
- time without clear evidence of spontaneous C4 activation ([7]; plasma or whole blood collected in sodium heparin, 1° C. or 22° C.): ≥ 6 h

Compound: OC[C@H]1O[C@H](OC[C@H]2O[C@H](O[C@]3(CO)O[C@H](CO)[C@@H](O)[C@@H]3O)[C@H](O)[C@@H](O)[C@@H]2O)[C@H](O)[C@@H](O)[C@H]1O [D-raffinose]
- prevention of spontaneous activation of C3 ([3]; final concentration 1.5M): ineffective; also recorded: unable to inhibit
- prevention of spontaneous activation of C4 (C4d fragment production) ([8]; final concentration 1.5M): unable to inhibit

Compound: O=CC[C@H](O)[C@H](O)CO [2-deoxy-D-ribose]
- prevention of spontaneous activation of C3 ([3]; final concentration 2M): ineffective
- prevention of spontaneous activation of C4 (C4d fragment production) ([8]; final concentration 2M): able to prevent

Compound: N[C@H]1C(O)O[C@H](CO)[C@@H](O)[C@@H]1O (stereo partly shown) [glucosamine]
- prevention of spontaneous activation of C3 ([3]; final concentration 0.5M): ineffective

Compound: OC[C@@H](O)[C@@H](O)[C@H](O)[C@H](O)CO [D-mannitol]
- prevention of spontaneous activation of C3 ([3]; final concentration 1.5M): ineffective; also recorded: unable to inhibit
- prevention of spontaneous activation of C4 (C4d fragment production) ([8]; final concentration 1.5M): unable to inhibit
